Source: patent US9351944B1, “Malodor eliminating compositions” (TAKASAGO INTERNATIONAL CORPORATION, priority 2008, dated 2016)
“And” between values parts separate entries of the source, which are not always exact repeats. Identical values can stand only once.

Key:
[1] = Methyl mercaptan suppression by Group A and Group B materials alone and combined (synergistic or additive activity); conditions: in ethanol, room temperature 2 hours
Experimental: The synergistic or additive activity of methyl mercaptan inhibition of malodor eliminating materials was tested. 5-40 μl of 1% (w/v) test OE materials in ethanol was placed into a 2 ml GC vial. Ethanol was added into this vial up to 1000 μl. 2 μl of 0.5%(w/v) of sodium methoxide in deionized water was added into the resulting vial, left to sit at room temperature for 2 hours, and analyzed using Multipurpose sampler-GC-PFPD. As a control, ethanol was added instead of test OE materials. Malodor suppression was calculated as described in Example 1 above.

[2] = Methyl mercaptan chemical suppression by Group A and Group B compounds (GC-PFPD); conditions: test material 200 ppm, malodor material 10 ppm, room temperature 2 hours, ethanol/deionized water
Experimental: 2 μl of 0.5%(w/v) of sodium methoxide in deionized water, 20 μl of 1% (w/v) test malodor eliminating material in ethanol, 80 μl of ethanol, and 900 μl of deionized water were added into a 2 ml GC vial, left to sit at room temperature for 2 hours, and analyzed using Multipurpose sampler-GC-PFPD (Gas Chromatography-Pulsed Flame Photometric Detector) (GC-PFPD)MPS2 (Gerstel)—GC; 6890N (Agilent)—PFPD; model 5380 (OI Analytical). As a control, ethanol was added instead of test malodor eliminating materials. The final concentration of test OE material and malodor material are 200 ppm and 10 ppmm, respectively. Malodor suppression was calculated as follows: Malodor Suppression (%)=(GC area of control sample−GC area of test_sample)/GC area of control sample×100

[3] = Suppression of methyl mercaptan (Example 12, GC-PFPD); conditions: test material 0.2%, malodor material 10 ppm, room temperature 2 hours, triplicate
Experimental: 100 μl of 0.01%(w/v) of test malodor material in ethanol, 2 μl of neat flavor oil and 900 μl of deionized water were added into a 4 ml vial and left to sit at room temperature for 2 hours. As a control, ethanol was added instead of the malodor reducing compound. The final concentration of test material and malodor material are 0.2% and 10 ppmm, respectively. 3 ml of ethanol was added into the resulting vial and the thiol level was analyzed using GC-PFPD as described above. Each material was tested in triplicate. Malodor suppression was calculated as described in the example 1 above.

[4] = Furfuryl mercaptan chemical suppression by malodor eliminating materials (GC-PFPD); conditions: OE material 0.2%, malodor material 10 ppm, room temperature 2 hours, triplicate
Experimental: (§1) The selected OE materials were tested for propyl, allyl, and furfuryl mercaptan suppression. 100 μl of 0.01%(w/v) of test malodor material in ethanol, 2 μl of neat flavor oil and 900 μl of deionized water were added into a 4 ml vial and left to sit at room temperature for 2 hours. As a control, ethanol was added instead of test flavor materials. The final concentration of test OE material and malodor material are 0.2% and 10 ppm, respectively. 3 ml of ethanol was added into the resulting vial and the thiol level was analyzed using GC-PFPD. Each material was tested in triplicate. Malodor suppression was calculated as described in the example 1 above.

[5] = Allyl mercaptan chemical suppression by malodor eliminating materials (GC-PFPD); conditions: OE material 0.2%, malodor material 10 ppm, room temperature 2 hours, triplicate
Experimental: as §1

[6] = Propyl mercaptan chemical suppression by malodor eliminating materials (GC-PFPD); conditions: OE material 0.2%, malodor material 10 ppm, room temperature 2 hours, triplicate
Experimental: as §1

Row | Compound | methyl mercaptan suppression (%) A alone ([1]; Group A level 200 ppm) | methyl mercaptan suppression (%) [2] | methyl mercaptan suppression (%) [3] | Malodor reduction (%) furfuryl mercaptan [4] | Malodor reduction (%) allyl mercaptan [5] | Malodor reduction (%) propyl mercaptan [6] | further results
1 | CC(=O)c1ccccc1 [ACETOPHENONE, acetophenone] | 4% | – | – | – | – | – | –
2 | CCCCC/C(C=O)=C/c1ccccc1 [AMYL CINN ALD, ALPHA] | −3% and −1% | 5% | – | – | – | – | –
3 | C=C(C)[C@@H]1CC=C(C)C(=O)C1 [CARVONE-L, carvone-l] | 12% | 14% | 60% | 27% | <20% | <20% | –
4 | O=C/C=C/c1ccccc1 [CINN ALD, cinnamic aldehyde] | – | 33% | 26% | 27% | <20% | 26% | –
5 | CC(C)=CCCC(C)=CC=O [CITRAL SYN REFINED (FDO), CITRAL] | 1% and 0% | 25% | – | – | – | – | –
6 | CC(C)c1ccc(C=O)cc1 [CUMIN ALD, cumin aldehyde] | −42% | – | – | – | – | – | –
7 | C/C=C/C(=O)C1=C(C)C=CCC1(C)C [DAMASCENONE, damascenone] | – | 100% | 81% | 67% | 67% | 49% | methyl mercaptan suppression (%) A alone ([1]; Group A level 50 ppm): 28% and 17%
8 | CCOC(=O)C=Cc1ccccc1 [ETH CINNNAMTE, ethyl cinnamate] | 12% and 8% | 50% | – | – | – | – | –
9 | C/C=C/C(=O)OCC [ETHYL-TRANS-2 BUTENOATE, ethyl-trans-2-butenoate] | 64% | 73% | – | – | – | – | –
10 | C=CCc1ccc(O)c(OC)c1 [EUGENOL, eugenol] | – | 46% | 78% | 80% | 63% | 44% | methyl mercaptan suppression (%) B alone ([1]; Group B level 400 ppm): 12% and 14% and 15% and 16%
11 | CCC/C=C/C=O [HEXENAL, TRANS-2,, trans-2-hexenal] | – | 82% | – | – | – | – | methyl mercaptan suppression (%) A alone ([1]; Group A level 200 ppm, TRANS-2): 33%
12 | CC/C=C\CCOC(C)=O [HEXENYL CIS 3 ACETATE, cis-3-hexenyl acetate] | – | 60% | 38% | 28% | <20% | <20% | methyl mercaptan suppression (%) B alone ([1]; Group B level 100 ppm): 22% and 27%
13 | CC(=O)/C=C/C1C(C)=CCCC1(C)C (stereo not drawn) [IONONE-ALPHA, ionone alpha] | – | 14% | 50% | 46% | 43% | <20% | –
14 | CC(=O)/C=C/C1=C(C)CCCC1(C)C [IONONE-BETA, ionone beta] | 71% | 23% | 55% | 51% | 37% | 27% | –
15 | CC(=O)/C=C/C=C(C)C [METHYL HEPTADIENONE, methyl heptadienone] | 12% and 6% and 8% and 15% | – | – | – | – | – | –
16 | CCCCCC#CC(=O)OC [METHYL HEPTIN CARE, methyl heptin carbonate] | – | 92% | 80% | 69% | 63% | 44% | methyl mercaptan suppression (%) A alone ([1]; Group A level 50 ppm, listed as METHYL HEP CARB): 67% and 53%
17 | CCCCCC=CCC(=O)OC [METHYL-3 -NONENOATE, METHYL-3-NONENOATE] | 7% | 36% | – | – | – | – | –
18 | C=C(C)C1CC=C(C=O)CC1 (stereo not drawn) [PERILLA ALD] | 16% | 12% | – | – | – | – | –
19 | C/C=C(\C)C(=O)OCCc1ccccc1 [PHEN ETH TIGLATE] | 4% | – | – | – | – | – | –
20 | CC(O)CO (stereo not drawn) [PROPYLENE GLYCOL (SOLVENT), propylene glycol] | – | – | – | – | – | – | methyl mercaptan suppression (%) B alone ([1]; Group B level 400 ppm): −5%
21 | Cc1ccc(C(C)C)c(O)c1 [THYMOL, thymol] | – | – | – | – | – | – | methyl mercaptan suppression (%) B alone ([1]; Group B level 400 ppm): 0%
22 | damascone beta [DAMASCONE, BETA] | – | 99% | 74% | 47% | 85% | 23% | –
23 | piperitone-d [[…]] | 8% | 37% | 45% | 64% | 51% | <20% | methyl mercaptan suppression (%) A alone ([1]; Group A level 200 ppm, listed as PIPERITONED): 12%
